Source: ChEMBL document CHEMBL1138858, “Small-molecule targeting of heat shock protein 90 chaperone function: rational identification of a new anticancer lead” (J Med Chem, 2006)
Active and inactive are the calls of the source. The calls are words filed in the database; no cut-off is given here.

Legend:
DU-145 [1] = test: Apoptotic activity against DU145 cells after 72 hrs; format: functional, Homo sapiens
[2] = Apoptotic activity against JR8 cells after 72 hrs; format: functional, Homo sapiens
HeLa [3] = test: Apoptotic activity against HeLa cells after 72 hrs; format: functional, Homo sapiens
[4] = Cytotoxicity against JR8 cells after 72 hrs; format: cell-based; conditions: Homo sapiens, JR8, 72 h
DU-145 [5] = test: Cytotoxicity against DU145 cells after 72 hrs; format: cell-based; conditions: Homo sapiens, DU-145, 72 h
HeLa [6] = test: Cytotoxicity against HeLa cells after 72 hrs; format: cell-based; conditions: Homo sapiens
Caspase-3 (Homo sapiens) [7] = biological target: T1, Caspase-3 (Homo sapiens) (UniProt P42574); test: Activation of caspase 3 in DU145 cells assessed as hydrolysis of DEVD-pNA […] substrate; format: cell-based; conditions: DU-145
T1 sequence (whole entry): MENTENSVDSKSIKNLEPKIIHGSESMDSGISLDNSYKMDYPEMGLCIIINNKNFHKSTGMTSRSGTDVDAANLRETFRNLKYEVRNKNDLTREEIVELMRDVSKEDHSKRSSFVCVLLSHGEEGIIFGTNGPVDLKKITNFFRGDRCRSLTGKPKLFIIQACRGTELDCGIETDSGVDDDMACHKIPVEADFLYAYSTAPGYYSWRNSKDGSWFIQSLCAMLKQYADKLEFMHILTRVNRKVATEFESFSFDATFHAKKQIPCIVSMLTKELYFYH

Caspase-9 (Homo sapiens) [8] = biological target: T2, Caspase-9 (Homo sapiens) (UniProt P55211); test: Activation of caspase 9 in DU145 cells assessed as hydrolysis of LEHD-pNA […] substrate; format: cell-based; conditions: DU-145
T2 sequence (whole entry): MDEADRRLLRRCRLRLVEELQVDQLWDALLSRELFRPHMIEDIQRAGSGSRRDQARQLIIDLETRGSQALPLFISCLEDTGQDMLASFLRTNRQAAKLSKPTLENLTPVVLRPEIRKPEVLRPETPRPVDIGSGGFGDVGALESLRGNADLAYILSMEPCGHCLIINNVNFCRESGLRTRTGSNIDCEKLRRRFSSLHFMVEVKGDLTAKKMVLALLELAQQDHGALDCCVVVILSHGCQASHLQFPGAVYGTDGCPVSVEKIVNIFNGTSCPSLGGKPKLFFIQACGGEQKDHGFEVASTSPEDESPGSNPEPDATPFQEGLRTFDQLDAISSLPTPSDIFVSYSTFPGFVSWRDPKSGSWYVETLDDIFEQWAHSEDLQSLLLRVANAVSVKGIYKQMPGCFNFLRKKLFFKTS

[9] = biological target: T3, Heat shock protein HSP90 (Homo sapiens) (UniProt P07900+P08238); test: Activity at Hsp90 in DU145 cells assessed as reduction in telomerase activity by TRAP assay relative to control; format: cell-based; design: scale not given: the % may be the effect or the level left; conditions: DU-145
DU-145 [10] = test: Induction of apoptosis in DU145 cells after 72 hrs at 62.5 uM; format: functional, Homo sapiens
[11] = Cytotoxicity against human WI38 cells after 72 hrs; format: cell-based; conditions: wi-38, 72 h
[12] = biological target: T3, Heat shock protein HSP90 (Homo sapiens); test: Activity at Hsp90 in HeLa cells assessed as reduction in telomerase activity by TRAP assay relative to control; format: cell-based; design: scale not given: the % may be the effect or the level left
Caspase-9 (Homo sapiens) [13] = biological target: T2, Caspase-9 (Homo sapiens); test: Activation of caspase 9 in HeLa cells assessed as hydrolysis of LEHD-pNA […] substrate; format: cell-based
[14] = Induction of apoptosis in JR8 cells after 72 hrs at 125 uM; format: functional, Homo sapiens
Caspase-3 (Homo sapiens) [15] = biological target: T1, Caspase-3 (Homo sapiens); test: Activation of caspase 3 in HeLa cells assessed as hydrolysis of DEVD-pNA […] substrate; format: cell-based
HeLa [16] = test: Induction of apoptosis in HeLa cells after 72 hrs at 125 uM; format: functional, Homo sapiens

Structure (SMILES)	Activity (DU-145 [1])	Activity [2]	Activity (HeLa [3])	IC50 [4]	IC50 (DU-145 [5])	IC50 (HeLa [6])	Activity (Caspase-3 (Homo sapiens) [7])	Activity (Caspase-9 (Homo sapiens) [8])	Activity [9]	Activity (DU-145 [10])	Activity [11]	Activity [12]	Activity (Caspase-9 (Homo sapiens) [13])	Activity [14]	Activity (Caspase-3 (Homo sapiens) [15])	Activity (HeLa [16])
C=CCNC1=C2C[C@@H](C)C[C@H](OC)[C@H](O)[C@@H](C)/C=C(\C)[C@H](OC(N)=O)[C@@H](OC)/C=C\C=C(/C)C(=O)NC(=CC1=O)C2=O [TANESPIMYCIN]	15.9%	12%	10.8%	53.3 µM	68.3 µM	108 µM										
NC(=O)c1ncn([C@@H]2O[C@H](COP(=O)(O)O)[C@@H](O)[C@H]2O)c1N	28%	13%	23%	105 µM	59 µM	126 µM	Active	Active	70%	34%	Not Active	70%	Active	20%	Active	27%
